Tested on: normal human lung fibroblasts
Assay: Ribosomal profiling: translational efficiency in TGFβ-treated fibroblasts
Format: cell-based
Details: TGFβ-treated fibroblasts
Protocol: Ribosomal profiling allows for measurement of changes in transcription and translation on a genome-wide basis accompanying TGFβ-dependent transformation of fibroblasts to myofibroblasts. Ribosomal profiles of the TGFβ-treated fibroblasts from Example 1 (about 6×10^6 cells/10 cm plate) were prepared and analyzed for changes in translational efficiencies with respect to potential disease-associated cellular changes accompanying this TGFβ-induced transformation.
Briefly, cells were washed with cold PBS supplemented with cycloheximide and lysed with 1× mammalian cell lysis buffer for 10 minutes on ice. Lysates were clarified by centrifugation for 10 minutes at 14,000 rpm and supernatants were collected. Cell lysates were processed to generate ribosomal protected fragments and total mRNA according to the instructions included with the ARTseq Ribosome Profiling Kit (Illumina, San Diego, Calif.). Sequencing of total RNA (RNA) and of ribosome-protected fragments of RNA (RPF) was carried out using RNA-Seq methodology according to the manufacturer's instructions (Illumina). To analyze the ribosomal profiles, RNA-Seq reads were processed with tools from the FASTX-Toolkit (fastq_quality_trimmer, fastx_clipper and fastx_trimmer). Unprocessed and processed reads were evaluated for a variety of quality measures using FastQC, and processed reads were mapped to the human genome using TopHat (see, e.g., Trapnell et al., Bioinformatics 25:1105, 2009). Gene-by-gene assessment of the number of fragments strictly and uniquely mapping to the coding region of each gene was conducted using HTSeq-count, a component of the HTSeq package. […] Genes with low counts in either RPF or RNA were excluded from differential analyses. Pathway and network analyses of differential data were conducted using Ingenuity Pathway Analysis (IPA).

Cc1cc(C2CCCCC2)n(O)c(=O)c1.NCCO [CPX, ciclopirox oloamine]
+ (+ = 0.9 to 1.5): renormalizing the translational profile of ROBO2 (ENSG00000185008) | renormalizing the translational profile of LAMB3 (ENSG00000196878) | renormalizing the translational profile of CES1 (ENSG00000198848)
six: number of genes whose translational efficiency was uniquely modulated by the compound (duplicate ribosomal profiles)
− (− = <0.9): renormalizing the translational profile of RPL9 (ENSG00000163682) | renormalizing the translational profile of RHOBTB3 (ENSG00000164292) | renormalizing the translational profile of RPL36AL (ENSG00000165502) | renormalizing the translational profile of RPL27A (ENSG00000166441) | renormalizing the translational profile of RP11-382A20.3.1 (ENSG00000166503) | renormalizing the translational profile of ANKDD1A (ENSG00000166839) | renormalizing the translational profile of RPL13 (ENSG00000167526) | renormalizing the translational profile of EEF2 (ENSG00000167658) | renormalizing the translational profile of CA5B (ENSG00000169239) | renormalizing the translational profile of KIAA1024 (ENSG00000169330) | renormalizing the translational profile of MURC (ENSG00000170681) | renormalizing the translational profile of HTRA3 (ENSG00000170801) | renormalizing the translational profile of PDE7B (ENSG00000171408) | renormalizing the translational profile of LPAR3 (ENSG00000171517) | renormalizing the translational profile of CTPS (ENSG00000171793) | renormalizing the translational profile of QARS (ENSG00000172053) | renormalizing the translational profile of RPL38 (ENSG00000172809) | renormalizing the translational profile of MRPL45 (ENSG00000174100) | renormalizing the translational profile of RPL4 (ENSG00000174444) | renormalizing the translational profile of RPL15 (ENSG00000174748) | renormalizing the translational profile of DES (ENSG00000175084) | renormalizing the translational profile of EIF3F (ENSG00000175390) | renormalizing the translational profile of CLCF1 (ENSG00000175505) | renormalizing the translational profile of AMIGO3 (ENSG00000176020) | renormalizing the translational profile of C14orf49 (ENSG00000176438) | renormalizing the translational profile of RPLP2 (ENSG00000177600) | renormalizing the translational profile of IMPDH2 (ENSG00000178035) | renormalizing the translational profile of DNAJC22 (ENSG00000178401) | renormalizing the translational profile of RPL35A (ENSG00000182899) | renormalizing the translational profile of LENG9 (ENSG00000182909) | renormalizing the translational profile of C22orf32 (ENSG00000183172) | renormalizing the translational profile of PDE4B (ENSG00000184588) | renormalizing the translational profile of PTCH1 (ENSG00000185920) | renormalizing the translational profile of POLR1D (ENSG00000186184) | renormalizing the translational profile of DYNC2H1 (ENSG00000187240) | renormalizing the translational profile of RPL14 (ENSG00000188846) | renormalizing the translational profile of LRRK2 (ENSG00000188906) | renormalizing the translational profile of NACA (ENSG00000196531) | renormalizing the translational profile of PCBP2 (ENSG00000197111) | renormalizing the translational profile of MAP3K5 (ENSG00000197442) | renormalizing the translational profile of RPL37A (ENSG00000197756) | renormalizing the translational profile of RPL12 (ENSG00000197958) | renormalizing the translational profile of LPAR1 (ENSG00000198121) | renormalizing the translational profile of RPL23A (ENSG00000198242) | renormalizing the translational profile of PLN (ENSG00000198523) | renormalizing the translational profile of RPL10A (ENSG00000198755) | renormalizing the translational profile of RPL39 (ENSG00000198918) | renormalizing the translational profile of CARD16 (ENSG00000204397) | renormalizing the translational profile of MICA (ENSG00000204520) | renormalizing the translational profile of GNB2L1 (ENSG00000204628) | renormalizing the translational profile of RPL17 (ENSG00000215472) | renormalizing the translational profile of RPL41 (ENSG00000229117) | renormalizing the translational profile of ARPC1A (ENSG00000241685) | renormalizing the translational profile of CHCHD10 (ENSG00000250479) | renormalizing the translational profile of EEF1G (ENSG00000254772) | effect in renormalizing the translational profile of the gene (gene RPS2 (ENSG00000140988)) | effect in renormalizing the translational profile of the gene (gene RPS3 (ENSG00000149273)) | effect in renormalizing the translational profile of the gene (gene RPS3A (ENSG00000145425)) | effect in renormalizing the translational profile of the gene (gene RPS4X (ENSG00000198034)) | effect in renormalizing the translational profile of the gene (gene RPS4Y1 (ENSG00000129824)) | effect in renormalizing the translational profile of the gene (gene RPS5 (ENSG00000083845))
